Results reported in patent US6645917B2, “Composition for hybrid seed production, process for the preparation of such composition and use thereof” (Council of Scientific and Industrial Research, priority 2002, dated 2003).
Like-named read-outs stand apart in the source and are kept apart here.

Tests used:
wheat [1] = details: cited from earlier work
wheat plants = experiment: Spray of chemicals in combinations and as individual molecules on wheat plants (Table 3); assay type: in vivo
Protocol: The effects of the composition with varied concentration of compound 1 and 2 were evaluated for two crops years. The aqueous solution of the compositions were sprayed on the wheat plants when the Spike length of 7-12 mm. i.e. growth of 20-22 of Zadoks scale, reached between 40-50 days after germination.
In a future of the present invention the calculation of male/female sterility is based on number of seeds and is done as per formula given below:
Male Sterility (%)=(Untreated Control−Bagged Spikes×100/Untreated Control
Female Sterility (%)=(Untreated Control−Bagged Spikes)×100/Untreated Control
The chemical formulation can be used at a rate of 1.8 kg/ha or below (following male: female ratio of 1:2) depending upon genotypes used, date of planting and growth stage. The female lines were sprayed with the chemical combination at the appropriate growth stage and concentration. The spike of 7-12 mm i.e. growth stage 20-22 of Zadoks scale (Zadoks J V, Chang T T and Konzak C F 1974. Weed Research 14: 415421) was ideal for generating effective male sterility in spring wheat. This stage is reached between 40-50 days after germination at optimum time of sowing in most of the genotypes. The date of spray varied depending upon the genotype used. A high volume spray pump may be used so as to cover the complete female plant.

wheat [2] = system: wheat; design: Effective dose: unit not given beside the values; details: cited from earlier work; for Female sterility / Germination (%) / Max. seed shriveling (Scale 1-5) / Seed setting: at effective dose; for Female sterility / Germination (%) / Max. seed shriveling (Scale 1-5) / Seed setting / Effective dose: 7-8 mm spike length; for Effective dose: minimum effective dose for complete male sterility
[3] = wheat, side effects on plant and seed
[4] = at minimum effective dose for complete male sterility

## C=C1C[C@]23C[C@@]1(O)CC[C@H]2[C@@]12C=C[C@H](O)[C@@](C)(C(=O)O1)[C@H]2[C@@H]3C(=O)O [Gibberellic acid]
Wheat [1]; wheat, optimum treatment
  Sterility (optimum treatment) Male: Poor

## Cc1cc(=O)c(C(=O)[O-])nn1-c1ccc(Cl)cc1.[K+] [Hybrex]
Wheat [1]; in vivo
  Remarks: Risk of damage
  Sterility (optimum treatment) Female: Slight
Wheat [1]; wheat, optimum treatment
  Sterility (optimum treatment) Male: High

## Cc1cc(C)n(-c2ccc(Cl)cc2)c(=O)c1C(=O)[O-].[Na+] [RH-531]
Wheat [1]; wheat, optimum treatment
  Sterility (optimum treatment) Female: Significant
  Sterility (optimum treatment) Male: High
Wheat [1]; [3]
  Remarks: Inhibit veg. Growth

## O=P(O)(O)CCCl [Ethephon]
Wheat [1]; wheat, optimum treatment
  Sterility (optimum treatment) Female: Significant
  Sterility (optimum treatment) Male: High
Wheat [1]; [3]
  Remarks: Height and seed size

## O=C(O)C1CNC1 [WL 84811]
Wheat [1]; wheat, optimum treatment
  Sterility (optimum treatment) Female: Very
  Sterility (optimum treatment) Male: Nearly
Wheat [1]; [3]
  Remarks: Toxic residues in F1

## Cc1cc(=O)c(C(=O)[O-])nn1-c1ccc(Cl)cc1.[K+] [CH9701, potassium 1-[4-chlorophenyl]-1,4 dihydro-6-methyl-4-oxopyridazine-3-carboxylate]
Wheat plants
  Female sterility: high female sterility
  damage to florets: damage to florets
  male sterility: complete male sterility
  seed set: low seed set
Wheat [2]; [4]
  female sterility (CH9701 compared with CH9832): higher
  seed germination (CH9701 compared with CH9832): comparable
  seed shriveling (CH9701 compared with CH9832): higher
Wheat [2]; variety PBW343
  Female sterility: 88.3
  Germination (%): 95%
  Max. seed shriveling (Scale 1-5): 3
  Seed setting: 20.0
  Effective dose: 500
Wheat [2]; variety WH542
  Female sterility: 90.7
  Germination (%): 85%
  Max. seed shriveling (Scale 1-5): 2
  Seed setting: 56.7
  Effective dose: 250

## CC(Cl)(Cl)C(=O)O [Dalapon]
Wheat [1]; wheat, optimum treatment
  Sterility (optimum treatment) Female: Severe
  Sterility (optimum treatment) Male: Partial
Wheat [1]; [3]
  Remarks: Severe plant damage

## COc1nc(=O)n(-c2ccc(Cl)cc2)c(=O)[nH]1.OCCN(CCO)CCO [DPX 3778]
Wheat [1]; wheat, optimum treatment
  Sterility (optimum treatment) Female: Sight
  Sterility (optimum treatment) Male: High
Wheat [1]; [3]
  Remarks: Shorter plant, leaf

## Cc1cc(=O)c(C(=O)[O-])nn1-c1ccc(F)c(Cl)c1.[K+] [CH9832, potassium 1-[4-fluoro, 3-chlorophenyl]-1,4 dihydro6-methyl-4-oxopyridazine-3-carboxylate]
Wheat plants
  Female sterility: low female sterility
  damage to florets: no damage to florets
  male sterility: complete male sterility
  seed set: low seed set
Wheat [2]; [4]
  seed germination (CH9701 compared with CH9832): comparable
  seed setting (CH9832 compared with CH9701): numerically higher
Wheat [2]; variety PBW343
  Female sterility: 40.2
  Germination (%): 90%
  Max. seed shriveling (Scale 1-5): 2
  Seed setting: 49.0
  Effective dose: 500
Wheat [2]; variety WH542
  Female sterility: 10.7
  Germination (%): 65%
  Max. seed shriveling (Scale 1-5): 2
  Seed setting: 65.5
  Effective dose: 500

## CC(Cl)(CCl)C(=O)[O-].[Na+] (stereo not shown) [Mendok]
Wheat [1]; in vivo
  Remarks: Severe plant damage,
  Sterility (optimum treatment) Female: Significant
Wheat [1]; wheat, optimum treatment
  Sterility (optimum treatment) Male: Poor
